Target: LeuT (bacterial leucine transporter) (Aquifex aeolicus, UniProt O67854)
Assay: scintillation proximity assay
Assay type: binding
Details: labelled compound; room temperature, […] days; DDM or MNA-C12/C13/C14

With `CC(C)C[C@H](N)C(=O)O` [[3H]-leucine] the “scintillation proximity assay (SPA), radioligand binding” value was “measuring the ability to bind [^3H]-leucine via scintillation proximity assay (SPA)”.

From PMC5500234 (Chemistry (Weinheim an der Bergstrasse, Germany), 2016)
